Experimental findings from patent US10077237B2 (Sanofi, priority 2013, dated 2018) are described below.

This assay addresses T1, recombinant human AMPK complex, containing α2β1γ2 (Homo sapiens, UniProt P54646+Q9Y478).
T1 construct: hsAMPKα2-552-His, hsAMPKβ1-2-270 and hsAMPKγ-2-569 respectively; hsAMPKβ1-2-270; hsAMPKγ-2-569; His (C); made in house; host or cells: Spodoptera frugiperda Sf21 (baculovirus)
Briefly: AMPK in vitro activation assay (HTRF). The note with it: for EC50: HTRF, recombinant human α2β1γ2 AMPK, 200 μM ATP, biotinylated ACC-CREBp peptide, repeat determinations on separate lines; for Emax: potentiation of AMPK activity as percent over the basal signal (without compound). In kind it is biochemical. The method in brief: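 Sf21-expressed, Ni-NTA partially purified α2β1γ2 complex preincubated 30 min at room temperature with compound (0.5% DMSO) in HEPES pH 7.0, MgCl2, DTT. Reaction was started with a solution holding 200 μM ATP and 2 or 0.08 μM biotinylated ACC-CREBp peptide, run 45 min at 37° C, then read by HTRF with anti-pS133-CREB; EC50 from percent over basal.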
Background: Time-resolved FRET reads energy transfer from a long-lived donor to a nearby acceptor.

Each structure is given as a SMILES string. Counter-ions that a name gives are not always drawn.

T1 sequence (P54646 2-552): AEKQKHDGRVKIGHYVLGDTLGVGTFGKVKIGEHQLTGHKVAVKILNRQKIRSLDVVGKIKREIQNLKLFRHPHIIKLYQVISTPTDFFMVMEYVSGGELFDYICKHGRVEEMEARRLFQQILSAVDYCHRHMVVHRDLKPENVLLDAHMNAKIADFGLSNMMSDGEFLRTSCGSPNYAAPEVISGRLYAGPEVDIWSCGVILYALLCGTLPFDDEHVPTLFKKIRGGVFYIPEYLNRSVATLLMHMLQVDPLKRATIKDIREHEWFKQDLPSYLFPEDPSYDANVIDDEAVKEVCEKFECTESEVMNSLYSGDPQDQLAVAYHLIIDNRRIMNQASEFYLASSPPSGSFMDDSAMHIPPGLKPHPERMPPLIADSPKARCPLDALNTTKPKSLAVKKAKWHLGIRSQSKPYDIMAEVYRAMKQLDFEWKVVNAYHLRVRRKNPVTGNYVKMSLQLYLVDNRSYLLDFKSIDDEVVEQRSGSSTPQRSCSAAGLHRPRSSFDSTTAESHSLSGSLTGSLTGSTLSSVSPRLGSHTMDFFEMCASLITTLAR
T1 sequence (Q9Y478 2-270): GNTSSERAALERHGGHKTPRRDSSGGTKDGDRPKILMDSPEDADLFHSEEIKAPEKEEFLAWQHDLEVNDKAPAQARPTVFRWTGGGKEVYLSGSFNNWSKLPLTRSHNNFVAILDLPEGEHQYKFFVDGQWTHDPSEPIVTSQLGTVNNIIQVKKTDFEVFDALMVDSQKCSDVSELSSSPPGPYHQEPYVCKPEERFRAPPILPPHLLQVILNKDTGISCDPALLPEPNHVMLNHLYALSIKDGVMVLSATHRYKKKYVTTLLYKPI
T1 sequence (Q9UGJ0 2-569 partner limits assumed): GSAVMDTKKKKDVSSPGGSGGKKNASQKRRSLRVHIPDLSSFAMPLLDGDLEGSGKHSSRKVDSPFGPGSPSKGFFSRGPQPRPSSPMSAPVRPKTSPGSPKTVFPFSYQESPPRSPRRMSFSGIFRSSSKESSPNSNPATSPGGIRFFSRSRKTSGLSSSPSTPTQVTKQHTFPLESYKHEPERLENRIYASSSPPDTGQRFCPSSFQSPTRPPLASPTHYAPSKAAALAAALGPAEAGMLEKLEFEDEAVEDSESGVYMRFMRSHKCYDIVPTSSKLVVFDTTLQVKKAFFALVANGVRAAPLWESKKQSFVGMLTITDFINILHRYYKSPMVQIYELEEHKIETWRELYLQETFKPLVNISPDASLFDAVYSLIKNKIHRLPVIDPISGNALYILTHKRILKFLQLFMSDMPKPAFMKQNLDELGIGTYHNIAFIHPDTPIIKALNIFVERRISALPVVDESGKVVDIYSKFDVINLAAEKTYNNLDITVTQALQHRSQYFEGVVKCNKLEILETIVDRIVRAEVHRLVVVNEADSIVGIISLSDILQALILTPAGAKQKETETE

For `COc1cc(C(O)=C2C(=O)Nc3cc(Cl)c(-c4ccc(C5CCN(C)C5)cc4)cc32)on1` (stereo not drawn) [Compound 133, 6-chloro-3-[hydroxy-(3-methoxyisoxazol-5-yl)methylene]-5-[4-(1-methylpyrrolidin-3-yl)phenyl]indolin-2-one hydrochloride], the EC50 turned out to be 0.014 µM and the Emax was found to be 397%.
The corresponding values for `COc1cc(C(O)=C2C(=O)Nc3cc(Cl)c(-c4ccc(C5CCNC5)cc4)cc32)on1` (stereo not drawn) [Compound 134, 6-chloro-3-[hydroxy-(3-methoxyisoxazol-5-yl)methylene]-5-(4-pyrrolidin-3-ylphenyl)indolin-2-one hydrochloride] are 0.009 µM and 394%.
For `COc1cc(C(O)=C2C(=O)Nc3cc(Cl)c(-c4ccc(C5CC(O)C5)cc4)cc32)on1` (stereo not drawn) [Compound 135, 6-chloro-5-[4-(3-hydroxycyclobutyl)phenyl]-3-[hydroxy-(3-methoxyisoxazol-5-yl)methylene]indolin-2-one] the same measures were 0.009 µM and 319%.
The corresponding values for `COc1cc(C(O)=C2C(=O)Nc3cc(Cl)c(-c4ccc(OCc5cncs5)cc4)cc32)on1` [Compound 136, 6-chloro-3-[hydroxy-(3-methoxyisoxazol-5-yl)methylene]-5-[4-(thiazol-5-ylmethoxy)phenyl]indolin-2-one] are 0.026 µM and 309%.
Regarding `COc1cc(C(O)=C2C(=O)Nc3cc(Cl)c(-c4ccc(N5CCCC5)cc4)cc32)on1` [Compound 137, 6-chloro-3-[hydroxy-(3-methoxyisoxazol-5-yl)methylene]-5-(4-pyrrolidin-1-ylphenyl)indolin-2-one], the EC50 was found to be 0.016 µM and the Emax was found to be 271%.
The corresponding values for `COc1ccc(C(O)=C2C(=O)Nc3cc(Cl)c(-c4ccc(N5CCOCC5)cc4)cc32)nc1` [Compound 140, 6-chloro-3-[hydroxy-(5-methoxy-2-pyridyl)methylene]-5-(4-morpholinophenyl)indolin-2-one] are 0.021 µM and 227%.
Turning to `O=C1Nc2cc(Cl)c(-c3ccc(C4(CO)CC4)cc3)cc2C1=C(O)c1ccc(F)cc1F` [Compound 141, 6-chloro-3-[(2,4-difluorophenyl)hydroxy-methylene]-5-[4-[1-(hydroxymethyl)cyclopropyl]phenyl]indolin-2-one], the EC50 was found to be 0.002 µM and the Emax worked out at 229%.
`O=C1Nc2cc(Cl)c(-c3ccc(C4(CO)CC4)cc3)cc2C1=C(O)c1cncc(F)c1` [Compound 142, 6-chloro-3-[(5-fluoro-3-pyridyl)hydroxy-methylene]-5-[4-[1-(hydroxymethyl)cyclopropyl]phenyl]indolin-2-one]: the EC50 was determined as 0.006 µM and the Emax was determined as 239%.
The corresponding values for `O=C1Nc2cc(Cl)c(-c3ccc(C4(CO)CC4)cc3)cc2C1=C(O)c1ccc(F)c(F)c1` [Compound 143, 6-chloro-3-[(3,4-difluorophenyl)hydroxy-methylene]-5-[4-[1-(hydroxymethyl)cyclopropyl]phenyl]indolin-2-one] are 0.003 µM and 230%.
For `O=C1Nc2cc(Cl)c(-c3ccc(C4(CO)CC4)cc3)cc2C1=C(O)c1cc(F)cc(F)c1` [Compound 144, 6-chloro-3-[(3,5-difluorophenyl)hydroxy-methylene]-5-[4-[1-(hydroxymethyl)cyclopropyl]phenyl]indolin-2-one] the same measures were 0.0009 µM and 210%.
For `COc1cc(C(O)=C2C(=O)Nc3cc(Cl)c(-c4cnc(N(C)C)nc4)cc32)on1` [Compound 145, 6-chloro-5-[2-(dimethylamino)pyrimidin-5-yl]-3-[hydroxy-(3-methoxyisoxazol-5-yl)methylene]indolin-2-one] the same measures were 0.095 µM and 257%.
Turning to `COc1cc(C(O)=C2C(=O)Nc3cc(Cl)c(-c4ccc(N(C)C)nc4)cc32)on1` [Compound 146, 6-chloro-5-[6-(dimethylamino)-3-pyridyl]-3-[hydroxy-(3-methoxyisoxazol-5-yl)methylene]indolin-2-one], the EC50 is 0.088 µM and the Emax amounted to 278%.

Usually EC50 stands for the concentration needed to bring the measured effect to its halfway point. For orientation: Emax means the maximal effect, on the per cent scale that the assay sets.
